Reference: patent US5756505A, “N-acylpiperazine derivative, antibacterial drug and anti-ulcer drug” (Shiseido Co., Ltd., priority 1995, dated 1998)

Assays:
acid secretion = experiment: VOL, TAO: Acid Secretion Inhibition Test In Vivo; set-up: species or system rat (male Crj:Donryu); conditions: rat; for TAO: total acid output inhibitory rate / VOL: gastric juice volume inhibitory rate: 100 mg/kg oral, histamine-stimulated, pylorus ligated; for gastric acid secretion inhibition effect (in words): in vivo
Experimental: VOL, TAO: Acid Secretion Inhibition Test In Vivo
Inhibitory effect on acid secretion in vivo is confirmed.
Male Crj:Donryu rats (7-week-old) were fasted overnight but allowed free access to water. In each group, 8 to 10 of these rats were used under urethane anesthesia (1.25 g/kg). The sample compound dissolved or suspended in an aqueous solution of 0.5% sodium carboxymethylcellulose or 0.05% Tween 80 was orally administered (100 mg/10 ml/kg). 30 minutes later, the abdomen of each was incised and the pylorus was ligated. 30 minutes after the ligation, 30 mg/kg of histamine dissolved in physiological saline were subcutaneously administered and, 3 hours thereafter, the rat was sacrificed with carbon dioxide. Immediately thereafter, each stomach was removed and the gastric contents were collected and each volume was determined. The total acid output was determined by titration of the gastric juice with 0.1N NaOH.
With respect to the gastric juice volume (VOL) and the total acid output (TAO), the effects obtained when 100 mg/kg of the sample compound had been administered were expressed as their respective inhibitory rates (%) as follows:
each inhibitory rate (%)=[1-(value in sample group/value in control group)]×100

gastric mucosa = experiment: PD: Gastric Mucosal Integrity Test; format: in vivo, rat (male Crj:SD); conditions: rat, 100 mg/kg into ex vivo chamber, 60 minutes
Experimental: PD: Gastric Mucosal Integrity Test
In this case, since the sample compound has a necrotizing effect, it is inappropriate as an anti-ulcer medicament.
Therefore, the gastric mucosal potential difference (PD), which reflects the integrity of the gastric mucosa, is measured so as to confirm that the sample compound has no damasing effect on gastric mucosa, which is toxicity at gastric mucosal level.
Male Crj:SD rats (7 to 8-week-old) was fasted overnight, but allowed free access to water, and then, under urethane anesthesia (1.25 g/kg, i.p.), fixed to a cork board on its back. The abdomen of each rat was incised, and a small incision was made in the forestomach. Then, the inside of the stomach was washed with physiological saline heated at 37° C. From the forestomach, along the greater curvature thereof, the stomach was incised without damaging blood vessels. After the height of the cork board was adjusted on a jack, the stomach was mounted on ex vivo chamber. The area of the gastric mucosa exposed to the inside of this chamber was 2.5 cm^2. The inside of the chamber was perfused with physiological saline warmed at 37° C. by micro tube pump. By using an agar bridge containing 3M KCl, the potential difference between the chamber and the abdominal cavity was measured by a PD meter. Here, the rectal temperature was measured to control the body temperature during the experiment. After the PD was sufficiently stabilized, the perfusate was stopped and then 100 mg/10 ml/kg of the sample compound dissolved or suspended in an aqueous solution of 0.5% sodium carboxymethyl cellulose or 0.05% Tween 80 were administered into the chamber, while PD was recorded for 60 minutes. To a control, the vehicle was administered.
The change in PD during 60 minutes after the administration of 100 mg/kg of the sample compound was collectively studied and, with reference to the positive control, classified into 5 levels as follows:
5: Same as the control with no recognizable damage at all.
3: Though a weak decrease in PD and a possibility of a weak mucosal damage is recognized, there is no substantial problem.
2: Medium degree of decrease in PD is found and a mucosal damage is recognized.
1: Heavy degree of decrease in PD is found and a remarkable mucosal damage is recognized.

[1] = system: gastric corpus mucosa cells; experiment: MTT: Cell Damaging and Protecting Effect Test; format: cell-based, rabbit (male Japanese White); conditions: final concentration 10^-4 M, 4 hours; smaller value is better; 100 µM
Description: MTT: Cell Damaging and Protecting Effect Test
It is confirmed that there is no toxicity in cell level. Those having a toxicity in cell level are inappropriate as an anti-ulcer drug.
A male Japanese White rabbit (2.5 to 3 kg) was anesthetized to death by Nembutal™ and, immediately thereafter, its stomach was removed. The greater curvature of the stomach was incised so as to remove the stomach contents therefrom. After the mucosal surface was washed with HBSS (Hanks' Balanced Salt Solution), the stomach in ice-cooled HBSS was transferred to a laboratory. Then, after the pyloric antrum was removed, the gastric corpus mucosa was separated by a spatula and then minced into 2 to 3 mm^3 pieces in BME (Basal Medium Eagle). Thereafter, these pieces were shaken at 120 to 130 cycles/minute for 15 minutes at 37° C. in BME 60ml containig 280 U/ml of dispase and 30 to 50 U/ml of collagenase. Here, the concentration of collagenase was appropriately changed for each lot in view of the state of cells. The pieces were washed twice with EBSS (Earle's Balanced Salt Solution) containing 1 mM of EDTA and then shaken in MEM (Minimum Essential Medium) containing 1 mM of EDTA at 37° C. for 5 minutes. Subsequently, they were shaken in the dispase and collagenase having the same concentrations as those mentioned above for 15 minutes so as to remove the supernatant and then further shaken at 37° C. for 50 to 60 minutes at 120 to 130 cycles/minute. Then, after being washed twice with HBSS, Ham F12 containing 2% of Ultrocer G™ was used to attain the concentration of 1×10^6 cells/ml. Thus formed suspension was dispensed in each well of a 96-well plate by 200 μl. The plate was incubated in the atmosphere composed of 5% CO2 and 95% air at 37° C. for three days so as to attain a confluent state and then subjected to MTT assay.
The sample compound was dissolved in DMSO so as to attain a concentration of 10^-2 M and then diluted with HBSS containing 2% of Ultrocer G™ so as to attain a final concentration of 10^-4 M. To each group, which 8 wells were used for, 10 μl of MTT reagent were added immediately after 100 μl of the medium in each well were exchanged for same volume of the resulting solution of the sample compound. After being incubated in an atmosphere composed of 5% CO2 and 95% air at 37° C. for 4 hours, thus formed solution was centrifuged and then its supernatant was discarded. Subsequently, 100 μl of 100% ethanol were added to the residue so as to dissolve MTT formazan. Then, the absorbance (OD: 570 to 630) was measured by a microplate reader. This method utilizes a phenomenon in which MTT is changed to MTT formazan only by mitochondria of living cells so as to change color.
The cell damaging or cell protecting effect of the sample compound at the final concentration of 10^-4 M was expressed as cell damaging rate (%) as follows:
cell damaging rate (%)=[1-(absorbance in sample group/absorbance in control group)]×100
Accordingly, the smaller value is better in the cell damaging rate.

## CC(C)Cc1cc(C(=O)N2CCN(CC(C)C)CC2)ccc1OCc1ccc(F)cc1F.Cl [Example 24, 1-[4-(2,4-difluorobenzyloxy)-3-isobutylbenzoyl]-4-isobutylpiperazine hydrochloride]
Acid secretion
  TAO: total acid output inhibitory rate: 33%
  VOL: gastric juice volume inhibitory rate: 7%
Gastric mucosa
  PD: change in gastric mucosal potential difference, level: 2
[1]
  MTT: cell damaging rate: -126%

## CC(C)Cc1cc(C(=O)N2CCN(CC(C)C)CC2)ccc1OCc1ccc(F)cc1 [Example 21, 1-[4-(4-fluorobenzyloxy)-3-isobutylbenzoyl]-4-isobutylpiperazine]
Acid secretion
  TAO: total acid output inhibitory rate: 35%
  VOL: gastric juice volume inhibitory rate: 9%
  gastric acid secretion inhibition effect (in words): improved
Gastric mucosa
  PD: change in gastric mucosal potential difference, level: 5
[1]
  MTT: cell damaging rate: -65%

## CC(C)Cc1cc(C(=O)N2CCN(CC(C)C)CC2)ccc1OCc1ccc(F)cc1.Cl [Example 22, 1-[4-(4-fluorobenzyloxy)-3-isobutylbenzoyl]-4-isobutylpiperazine hydrochloride]
Acid secretion
  TAO: total acid output inhibitory rate: 22%
  VOL: gastric juice volume inhibitory rate: 10%
  gastric acid secretion inhibition effect (in words): improved
Gastric mucosa
  PD: change in gastric mucosal potential difference, level: 5
[1]
  MTT: cell damaging rate: -4%

## CC(C)Cc1cc(C(=O)N2CCN(CC(C)C)CC2)ccc1OCc1ccccc1F [Example 18, 1-[4-(2-fluorobenzyloxy)-3-isobutylbenzoyl]-4-isobutylpiperazine]
Gastric mucosa
  PD: change in gastric mucosal potential difference, level: 3
[1]
  MTT: cell damaging rate: -33%

## CC(C)Cc1cc(C(=O)N2CCN(CC(C)C)CC2)ccc1OCc1ccccc1F.Cl [Example 19, 1-[4-(2-fluorobenzyloxy)-3-isobutylbenzoyl]-4-isobutylpiperazine hydrochloride]
Acid secretion
  TAO: total acid output inhibitory rate: 42%
  VOL: gastric juice volume inhibitory rate: 6%
Gastric mucosa
  PD: change in gastric mucosal potential difference, level: 2
[1]
  MTT: cell damaging rate: -55%
